Reference: PMC9993039, “Synthesis and radiolabelling of PSMA-targeted derivatives containing GYK/MVK cleavable linkers” (Royal Society Open Science, 2023)

Legend:
[1] = tested on: renal brush border (RBB) enzymes; settings: Cy5 labelled model peptide; cited from earlier work
Text: High kidney uptake of radiopharmaceuticals can usually be explained by the long residence time of radiometabolites generated after lysosomal proteolysis. This process is followed by glomerular filtration and reabsorption of the radiometabolites in renal cells. By inserting a linker which is specifically cleaved by enzymes on the brush border membrane located in the lumen of the proximal renal tubule, the radiometal-chelator moiety can be rapidly excreted via the bladder while the peptide remains in the kidneys. The MVK sequence was initially conjugated to antibody fragments by Uehara et ...

[2] = in vivo; cited from earlier work
Text: In this study, we synthesized PSMA-targeted radiopharmaceuticals that combined an albumin binder and a cleavable linker to optimize their therapeutic efficacy. We selected the albumin-binder containing PSMA-617 derivative HTK01169 (figure 1), reported by Kuo et al., as a reference. [^177Lu]Lu-HTK01169 delivers an eightfold higher dose to the tumour than [^177Lu]Lu-PSMA-617, but also a 17-fold higher dose to the kidneys. The amino acid sequences Gly-Tyr-Lys (GYK) and Met-Val-Lys (MVK) were selected as the cleavable linkers. Effective cleavage of the MVK sequence in ^67/68Ga-labell ... || The purpose of this study is to report the synthesis and radiolabelling of new PSMA derivatives containing: (i) a PSMA-targeting vector, (ii) an albumin binder, namely 4-(p-iodophenyl)butyric acid, (iii) an amino acid sequence which could be specifically recognized and cleaved by renal brush border (RBB) enzymes, and (iv) a DOTA chelator which can be labelled with In-111 for imaging or Lu-177 for therapy. Previous studies reported that presence of an albumin-binding moiety increases blood residence time of the radiopharmaceutical agent, and ultimately leads to a higher accumulation of the PSMA ...

[3] = tested on: renal brush border enzymes; settings: labelled with gallium-68; cited from earlier work
Text: We hypothesized that this radiolabelled impurity might come from the radiation-induced oxidation of the methionine residue of the cleavable linker. Bendre et al. recently synthesized DOTA-AmBz-M(O)VK(HTK01166)-OH, the oxidized analogue of the PSMA-targeted derivative DOTA-AmBz-MVK(HTK01166)-OH, and performed labelling with gallium-68. They observed that the oxidized product was not cleaved by the renal brush border enzymes. It confirms that oxidation of the methionine is undesirable, as it leads to loss of enzyme recognition and consequently less cleavage of the conjugate. This radiolys ...

[4] = in vivo; cited from earlier work; remark: listed apart in the source
Text: The purpose of this study is to report the synthesis and radiolabelling of new PSMA derivatives containing: (i) a PSMA-targeting vector, (ii) an albumin binder, namely 4-(p-iodophenyl)butyric acid, (iii) an amino acid sequence which could be specifically recognized and cleaved by renal brush border (RBB) enzymes, and (iv) a DOTA chelator which can be labelled with In-111 for imaging or Lu-177 for therapy. Previous studies reported that presence of an albumin-binding moiety increases blood residence time of the radiopharmaceutical agent, and ultimately leads to a higher accumulation of the PSMA ...

[5] = tested on: metastatic castration-resistant prostate cancer; settings: cited from earlier work
Text: The prostate-specific membrane antigen (PSMA) is overexpressed in prostate cancer cells, and its expression increases with disease progression. PSMA is therefore an attractive target for TRT of prostate cancer. Currently, several compounds targeting this protein are being investigated for imaging and treatment of prostate cancer, with PSMA-617 advancing as a lead candidate (figure 1).

[6] = assay type: in vitro ADME, mouse
Method: Stability was determined for both the In-111 and Lu-177 labelled compounds by mixing 20 µl of radiolabelled sample (approx. 5 MBq) with 80 µl phosphate buffered saline (PBS) (0.01 M, pH 7.4), or mixing 70 µl of radiolabelled sample (approx. 20 MBq) with 330 µl of mouse serum, and heating at 37°C for up to 24 h. After incubation, 50 µl of the mouse serum solution is added to a separate vial containing acetonitrile (50 µl) and the sample is centrifuged for 20 min. The supernatant and precipitate are separated, and the activity is measured to determine the binding to serum proteins. The supernatant is then analysed by radio-HPLC. The PBS solution is loaded directly onto the radio-HPLC.

[7] = plus standard of care, versus standard of care, ref NCT03511664

H-GGGFK(Cy5)-NH2 [Cy5 labelled model peptide with GFK linker]
cleavage on incubation with RBB enzymes [1]: 82%

O=C(O)CC[C@H](NC(=O)N[C@@H](CCCCNC(=O)[C@H](Cc1ccc2ccccc2c1)NC(=O)[C@H]1CC[C@H](CNC(=O)[C@H](CCCCNC(=O)CN2CCN(CC(=O)O)CCN(CC(=O)O)CCN(CC(=O)O)CC2)NC(=O)[C@H](CCC(=O)O)NC(=O)CCCc2ccc(I)cc2)CC1)C(=O)O)C(=O)O [[^177Lu]Lu-HTK01169, metal not drawn]
radiation dose to the kidneys relative to [177Lu]Lu-PSMA-617 [2]: 17 fold
radiation dose to the tumour relative to [177Lu]Lu-PSMA-617 [2]: eightfold

DOTA-AmBz-M(O)VK(HTK01166)-OH
cleavage by renal brush border enzymes [3]: not cleaved

[^177Lu]Lu-PSMA-617
uptake in the kidneys at 1 h [4]: approximately 10 % IA g^−1
uptake in the kidneys at 24 h [4]: less than 1 % IA g^−1
patients who do not respond significantly to the treatment [5]: approximately 30%
incidence of adverse effects (grade 3 or 4) ([5]; human, in vivo): 52.7%
response rates ([5]; patients): over 50%
imaging-based progression free survival (median) [5, 7]: 8.7 months
overall survival (median) [5, 7]: 15.3 months

H-GGGYK(Cy5)-NH2 [Cy5 labelled model peptide with GYK linker]
cleavage on incubation with RBB enzymes [1]: quantitative cleavage

N[C@@H](CCCCNC(=O)CN1CCN(CC(=O)O)CCN(CC(=O)O)CCN(CC(=O)O)CC1)C(=O)N[C@@H](Cc1ccc(O)cc1)C(=O)NCC(=O)NCCCC[C@H](NC(=O)[C@H](CCC(=O)O)NC(=O)CCCc1ccc(I)cc1)C(=O)NC[C@H]1CC[C@H](C(=O)N[C@@H](Cc2ccc3ccccc3c2)C(=O)NCCCC[C@H](NC(=O)N[C@@H](CCC(=O)O)C(=O)O)C(=O)O)CC1 [[^111In]-7] [metal not drawn]
peak at 2.9 min (radiolabelled side-product) in mouse serum [6]: 62%
